{
  "source": "patent US5723449A",
  "about": "“Methods and compositions for inhibiting uridine secretion” (priority 1996, dated 1998)",
  "key": {"[1]": {"tested_on": "bone marrow cell growth", "settings": "cited from earlier work; for limiting toxicity: in vivo"}, "[2]": {"assay": "Administration of dilazep to Rhesus monkeys, plasma uridine levels and toxicity", "type": "in vivo", "settings": "dilazep 1 to 2 mg/kg of body weight per day", "experimental": "Uridine secretion can be inhibited by administering compounds of the type noted above by Formula (I) or by administering the uridine competing compounds noted above. Uridine secretion inhibiting compounds of the type denoted by Formula (I) typically are administered at preferred doses in the range of about 1 to 5 mg/kg of body weight 2 to 3 times per day. Uridine competing compounds preferably are administered at doses ranging from 5 to 50 mg/kg of body weight 2 to 3 times per day. […] Moreover, such treatment increases by about 4 to 5-fold, the plasma half-life of uridine. These uridine levels are roughly equivalent to those obtained by administering high doses of uridine (1 to 3 g/m^2 per day), without the toxic side effects associated with uridine administration."}, "[3]": {"assay": "Single subcutaneous dose of uridine with and without dilazep, plasma/urine uridine pharmacokinetics", "type": "in vivo, rhesus monkeys (Macaca mulatta)", "settings": "rhesus monkey, sc", "experimental": "Single dose of Uridine and effect of Dilazep\nThe uridine was administered both with and without dilazep. When dilazep was given it was administered at either 1 or 2 mg/kg of body weight, dissolved in sterile phosphate-buffed saline (pH 7.4). Samples of blood (3 ml) were collected in heparinized tubes at 0, 5, 10, 15 and 30 minutes and 1, 2, 4 and 6 hours after injection. When possible, urine was also collected by cytocentesis at similar time intervals. The plasma and urine samples were frozen at -20° C. until analysis.\nThe proteins were removed by centrifugation, and sample temperature was maintained at 5° C. The supernant was removed and an equivalent amount of a 1:1 mixture of ice cold trioctylamine and 1,1,2-trichlorotrifluoroethane (freon) was added. […] Reversed-phased chromatography was performed using a Hypersil ODS 5 μm column (Jones Chromatography, Littleton, Colo.). Urine samples were filtered through a 0.45 μm pore size Acro LC 13 filter (Gelman Sciences, Ann Arbor, Mich.) to remove proteins and 50 μl aliquots were analyzed by HPLC. Isocratic elution was performed at 1 ml/min with 10 mM phosphoric acid and 10 μM heptane sulfonic acid (pH 3.1). Column temperature was maintained at 25° C., and the absorbance was measured at 254 nm. […] After adding 5 ml of Econo-Safe scintillation fluor (Research Products International Corp., Mount Prospect, Ill.), radioactivity was measured by using Beckman Model LS 5000TA liquid scintillation counter (Beckman Instruments, Inc., Fullerton, Calif.) equipped with an automatic quenching correction program. […] The detection limits were 2.0 μM.\nThe pharmacokinetic parameters of uridine was estimated by […] model-independent methods using a SIPHAR/Base program. The AUC was determined by the trapeziodal rule with extrapolation to time infinity using the terminal disposition slope (K) generated by a weighted nonlinear least-squares regression of an exponential fit of the data, with the weighted square factor set as the reciprocal of the calculated concentration squared. […] The peak plasma concentration (Cmax) values and time to peak plasma concentration (Tmax) values were observed experimental values. Renal clearance (CLR) of uridine was calculated by dividing the […] by the AUC."}, "[4]": {"settings": "cited from earlier work"}, "[5]": {"tested_on": "heart tissue", "settings": "heart tissue of rabbits; cited from earlier work"}, "[6]": {"tested_on": "hearts", "settings": "hearts of frogs; cited from earlier work"}, "[7]": {"tested_on": "hearts", "settings": "hearts of rats; cited from earlier work"}, "[8]": {"tested_on": "hearts", "settings": "hearts of dogs; cited from earlier work"}, "[9]": {"tested_on": "isolated rat skeletal muscle", "settings": "low concentrations of uridine (10^-4 M); cited from earlier work"}, "[10]": {"tested_on": "GABA receptor", "settings": "cerebellar membranes and brain areas associated with convulsions; cited from earlier work"}, "[11]": {"tested_on": "CCl4 damaged rat livers", "settings": "cited from earlier work"}, "[12]": {"tested_on": "hereditary orotic aciduria", "settings": "human, in vivo; cited from earlier work"}, "[13]": {"settings": "cited from earlier work", "remark": "listed apart in the source"}, "[14]": {"settings": "plasma, uridine parameter, 83.3 mg/kg uridine s.c., no dilazep"}},
  "note": "Where two headings read alike, the source gives them in different places.",
  "data": [
    {"smiles": "O=c1[nH]cc(F)c(=O)[nH]1", "note": "[5-FU, 5-fluorouracil]", "values": [
      {"measurement": "limiting toxicity", "setting": "[1]", "result": "myelosuppression"}
    ]},
    {"smiles": "Cc1cn([C@H]2C[C@H](N=[N+]=[N-])[C@@H](CO)O2)c(=O)[nH]c1=O", "note": "[AZT, 3'-azido-3'-deoxythymidine]", "values": [
      {"measurement": "limiting toxicity", "setting": "[1]", "result": "myelosuppression"}
    ]},
    {"smiles": "O=c1[nH]c(=O)n([C@H]2C[C@H](O)[C@@H](CO)O2)cc1F", "note": "[FdUrd, 5-fluoro-2'-deoxyuridine]", "values": [
      {"measurement": "limiting toxicity", "setting": "[1]", "result": "myelosuppression"}
    ]},
    {"smiles": "COc1cc(C(=O)OCCCN2CCCN(CCCOC(=O)c3cc(OC)c(OC)c(OC)c3)CC2)cc(OC)c1OC", "note": "[dilazep, N,N'-bis[3-(3,4,5-trmethoxybenzoyloxy)propyl] homopiperazine]", "values": [
      {"measurement": "toxicity", "setting": "[2]", "result": "without apparent toxicity"}
    ]},
    {"smiles": "O=c1ccn([C@@H]2O[C@H](CO)[C@@H](O)[C@H]2O)c(=O)[nH]1", "note": "[uridine]", "values": [
      {"measurement": "Cmax/C0", "setting": "[3]; in vivo, 83.3 mg/kg", "result": 10.7},
      {"measurement": "CL renal", "setting": "[3]; in vivo, uridine parameter, 83.3 mg/kg uridine s.c., no dilazep, read-out: ClR (renal clearance of uridine) (converted)", "result": 1.12, "unit": "mL/min/kg"},
      {"measurement": "AUC", "setting": "[3]; [14]", "result": 370, "unit": "µM·h"},
      {"measurement": "Cmax", "setting": "[3]; [14]", "result": 175, "unit": "µM"},
      {"measurement": "Tmax", "setting": "[3]; [14]", "result": 30, "unit": "min"},
      {"measurement": "concentration in blood plasma", "setting": "[4]; endogenous, different species", "result": "1 to 5", "unit": "µM"},
      {"measurement": "plasma uridine entering the liver by the portal vein degraded in single pass", "setting": "[4]; hepatic uridine phosphorylase", "result": "More than 90%"},
      {"measurement": "half life in the plasma", "setting": "[4]; in vivo", "result": "approximately 2 minutes"},
      {"measurement": "myocardial performance, glucose uptake, glycogen synthesis and breakdown of ATP", "setting": "[5]", "result": "increase myocardial performance, glucose uptake, glycogen synthesis and the breakdown of ATP"},
      {"measurement": "myocardial contractility", "setting": "[6]", "result": "increase myocardial contractility"},
      {"measurement": "myocardial contractility", "setting": "[7]", "result": "increase myocardial contractility"},
      {"measurement": "myocardial contractility", "setting": "[8]", "result": "increase myocardial contractility"},
      {"measurement": "glucose uptake and glycogen synthesis", "setting": "[9]", "result": "increase glucose uptake and glycogen synthesis"},
      {"measurement": "effect on the GABA receptor", "setting": "[10]", "result": "may have an agonist effect on the receptor"},
      {"measurement": "conjugating and excretory functions", "setting": "[11]", "result": "normalize conjugating and excretory functions"},
      {"measurement": "management of patients with hereditary orotic aciduria", "setting": "[12]", "result": "effective to manage patients with hereditary orotic aciduria"},
      {"measurement": "urinary excretion of uridine", "setting": "[13]; high doses of uridine (1 to 3 gm/m^2), several times per day", "result": "15-40 % of the dose"},
      {"measurement": "toxic side effects", "setting": "[13]; high doses of uridine", "result": "phlebitis, pyrogenic reactions and diarrhea"},
      {"measurement": "protection (and reversal) from myelosuppression of pyrimidine analogues", "setting": "[1]; in vitro and in vivo", "result": "Complete protection (and reversal)"}
    ]}
  ]
}
